Test results: EP4667483A1, “HUMAN TRANSFERRIN RECEPTOR-BINDING PEPTIDE” (JCR Pharmaceuticals Co., Ltd., priority 2023, dated 2024)
Numbered stars: 1 amine (or outer) side, 2 acyl side, 3 side chain; on linkers, the order of the positions; unused ones are H or OH. Bridge positions count the residues as written; N and C are the ends. Square brackets hold non-standard residues; d marks the D form. Peptide text beside a SMILES is read from it. * marks the point of attachment. Trp(1-CH2COOH) = N[C@@H](Cc1cn(CC(=O)O)c2ccccc12)C(=O)O; NMePhe(4-COOH) = CN[C@@H](Cc1ccc(C(=O)O)cc1)C(=O)O; X7 = CN([C@@H](Cc1cccc(C(=O)O)c1)C(=O)[*:2])[*:1]; X2 = O=C([C@H](Cc1cn(CCO)c2ccccc12)N[*:1])[*:2]; Phe(3-COOH) = N[C@@H](Cc1cccc(C(=O)O)c1)C(=O)O; Tyr(2,6-F2) = N[C@@H](Cc1c(F)cc(O)cc1F)C(=O)O; NMePhe(3-Cl) = CN[C@@H](Cc1cccc(Cl)c1)C(=O)O; Trp(1-Me) = Cn1cc(C[C@H](N)C(=O)O)c2ccccc21; NMeY = CN[C@@H](Cc1ccc(O)cc1)C(=O)O; PEG4 = NCCOCCOCCOCCOCCC(=O)O; Carboxymethyl = O=C(O)C*

Each compound was assayed against human transferrin receptor (hTfR) (Homo sapiens, UniProt P02786) (assay: Evaluation of pH dependence (ratio of SPR koff or KD at pH 6.0 to pH 7.4)). Conditions: ratio of koff at pH 6.0 to pH 7.4.
Assay type: binding
Method: The ratio of the calculated koff or KD values under pH 6.0 conditions to those under pH 7.4 conditions was calculated to check pH dependency.

Chain of human transferrin receptor (hTfR) (P02786 whole entry): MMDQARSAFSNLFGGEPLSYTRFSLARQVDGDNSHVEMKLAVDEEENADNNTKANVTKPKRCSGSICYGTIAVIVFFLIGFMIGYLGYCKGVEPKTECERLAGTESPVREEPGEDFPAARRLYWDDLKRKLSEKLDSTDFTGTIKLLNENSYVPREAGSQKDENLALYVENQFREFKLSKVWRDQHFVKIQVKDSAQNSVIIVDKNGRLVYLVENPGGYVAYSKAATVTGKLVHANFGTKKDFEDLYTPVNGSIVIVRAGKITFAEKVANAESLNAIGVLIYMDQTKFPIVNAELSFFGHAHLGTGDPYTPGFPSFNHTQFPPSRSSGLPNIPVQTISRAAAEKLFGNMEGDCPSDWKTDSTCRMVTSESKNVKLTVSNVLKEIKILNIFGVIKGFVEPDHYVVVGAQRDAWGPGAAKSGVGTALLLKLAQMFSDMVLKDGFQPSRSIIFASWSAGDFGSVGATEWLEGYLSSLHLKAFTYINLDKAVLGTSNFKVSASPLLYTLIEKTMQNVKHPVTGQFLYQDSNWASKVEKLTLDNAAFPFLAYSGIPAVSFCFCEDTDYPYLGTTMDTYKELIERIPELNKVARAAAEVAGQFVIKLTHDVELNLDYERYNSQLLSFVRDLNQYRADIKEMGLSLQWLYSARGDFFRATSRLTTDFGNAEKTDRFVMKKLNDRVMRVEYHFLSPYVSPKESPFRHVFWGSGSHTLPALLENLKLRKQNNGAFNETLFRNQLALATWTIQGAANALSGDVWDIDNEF

SMILES	dependency koff pH6.0/7.4
CC[C@H](C)[C@@H]1NC(=O)[C@H](Cc2ccc(OCC(=O)O)cc2)NC(=O)[C@H](Cc2ccc(O)cc2)NC(=O)[C@H](CC(N)=O)NC(=O)[C@H](Cc2cn(CCO)c3ccccc23)NC(=O)[C@H](C(C)C)NC(=O)[C@H](Cc2cccc(Cl)c2)N(C)C(=O)[C@H]([C@@H](C)O)NC(=O)[C@H](C)NC(=O)CSC[C@@H](C(=O)NCCOCCOCCOCCOCCC(N)=O)NC(=O)[C@H](Cc2ccc(O)cc2)N(C)C(=O)[C@H](Cc2cccc(C(=O)O)c2)NC(=O)[C@H](CCCNC(=N)N)NC(=O)[C@H](CCC(N)=O)NC(=O)[C@H]([C@@H](C)CC)NC1=O [compound 77] ({CH2CO}-AT[NMePhe(3-Cl)]V[X2]NYY(Carboxymethyl)IIQR[Phe(3-COOH)][NMeY]C[PEG4]-NH2; thioether N-15)	4.46
CC[C@H](C)[C@@H]1NC(=O)[C@H](Cc2ccc(OCC(=O)O)cc2)NC(=O)[C@H](Cc2c(F)cc(O)cc2F)NC(=O)[C@H](CC(N)=O)NC(=O)[C@H](Cc2cn(CC(=O)O)c3ccccc23)NC(=O)[C@H](C(C)C)NC(=O)[C@H](Cc2cccc(Cl)c2)N(C)C(=O)[C@H](C(C)C)NC(=O)[C@H](C)NC(=O)CSC[C@@H](C(=O)NCCOCCOCCOCCOCCC(N)=O)NC(=O)[C@H](Cc2ccc(O)cc2)N(C)C(=O)[C@H](Cc2cccc(C(=O)O)c2)NC(=O)[C@H](CCCNC(=N)N)NC(=O)[C@H](CCC(N)=O)NC(=O)[C@H]([C@@H](C)CC)NC1=O [compound 78] ({CH2CO}-AV[NMePhe(3-Cl)]V[Trp(1-CH2COOH)]N[Tyr(2,6-F2)]Y(Carboxymethyl)IIQR[Phe(3-COOH)][NMeY]C[PEG4]-NH2; thioether N-15)	4.38
CC[C@H](C)[C@@H]1NC(=O)[C@H](Cc2ccc(OCC(=O)O)cc2)NC(=O)[C@H](Cc2ccc(O)cc2)NC(=O)[C@H](CC(N)=O)NC(=O)[C@H](Cc2cn(C)c3ccccc23)NC(=O)[C@H](C(C)C)NC(=O)[C@H](Cc2cccc(Cl)c2)N(C)C(=O)[C@H](C(C)C)NC(=O)[C@H](C)NC(=O)CSC[C@@H](C(=O)NCCOCCOCCOCCOCCC(N)=O)NC(=O)[C@H](Cc2ccc(O)cc2)N(C)C(=O)[C@H](Cc2cccc(C(=O)O)c2)NC(=O)[C@H](CCCNC(=N)N)NC(=O)[C@H](CCC(N)=O)NC(=O)[C@H]([C@@H](C)CC)NC1=O [compound 79] ({CH2CO}-AV[NMePhe(3-Cl)]V[Trp(1-Me)]NYY(Carboxymethyl)IIQR[Phe(3-COOH)][NMeY]C[PEG4]-NH2; thioether N-15)	5.31
CC[C@H](C)[C@@H]1NC(=O)[C@H](Cc2ccc(OC)cc2)NC(=O)[C@H](Cc2ccc(O)cc2)NC(=O)[C@H](CC(N)=O)NC(=O)[C@H](Cc2c[nH]c3ccccc23)NC(=O)[C@H](C(C)C)NC(=O)[C@H](Cc2cccc(Cl)c2)N(C)C(=O)[C@H](C(C)C)NC(=O)[C@H](C)NC(=O)CSC[C@@H](C(=O)NCCOCCOCCOCCOCCC(N)=O)NC(=O)[C@H](Cc2ccc(C(=O)O)cc2)N(C)C(=O)[C@H](Cc2cccc(C(=O)O)c2)NC(=O)[C@H](CCCNC(=N)N)NC(=O)[C@H](CCC(N)=O)NC(=O)[C@H]([C@@H](C)CC)NC1=O [compound 80] ({CH2CO}-AV[NMePhe(3-Cl)]VWNYY(Me)IIQR[Phe(3-COOH)][NMePhe(4-COOH)]C[PEG4]-NH2; thioether N-15)	22.20
CC[C@H](C)[C@@H]1NC(=O)[C@H](Cc2ccc(OC)cc2)NC(=O)[C@H](Cc2ccc(O)cc2)NC(=O)[C@H](CC(N)=O)NC(=O)[C@H](Cc2c[nH]c3ccccc23)NC(=O)[C@H](C(C)C)NC(=O)[C@H](Cc2cccc(Cl)c2)N(C)C(=O)[C@H](C(C)C)NC(=O)[C@H](C)NC(=O)CSC[C@@H](C(=O)NCCOCCOCCOCCOCCC(N)=O)NC(=O)[C@H](Cc2cccc(C(=O)O)c2)N(C)C(=O)[C@H](Cc2cccc(C(=O)O)c2)NC(=O)[C@H](CCCNC(=N)N)NC(=O)[C@H](CCC(N)=O)NC(=O)[C@H]([C@@H](C)CC)NC1=O [compound 81] ({CH2CO}-AV[NMePhe(3-Cl)]VWNYY(Me)IIQR[Phe(3-COOH)][X7]C[PEG4]-NH2; thioether N-15)	13.49
